Our source for the Ratio and IC50 values is ChEMBL document CHEMBL1133954, “The discovery of novel, potent and selective PDE5 inhibitors” (Bioorg Med Chem Lett, 2001).

Assay [1] can be described thus: Relative inhibition of PDE4 from rat kidney and PDE5 from human platelets.
Assay [2] can be described thus: Relative inhibition of PDE1 from bovine heart and PDE5 from human platelets.
A short description of assay [3]: Relative inhibition of PDE2 from rat kidney and PDE5 from human platelets.
Assay [4] can be described thus: Relative inhibition of PDE6 from bovine retina and PDE5 from human platelets.
In assay [5] the target is cGMP-specific 3',5'-cyclic phosphodiesterase (Homo sapiens, UniProt O76074). Description: Inhibition of PDE5 from human platelets.

On to `CCCOc1ccc(S(=O)(=O)N2CC[C@@H](N(C)C)C2)cc1-c1nc(O)c2c[nH]c3nncc-3c2n1`, for which the Ratio in assay [1] is 3200; in assay [2], 400; in assay [3], 2000; in assay [4] it was 22.
As to `CCCOc1ccc(S(=O)(=O)N2CC[C@@H](N(C)C)C2)cc1-c1nc(O)c2c(NCc3ccc(F)cc3)[nH]c3nncc-3c2n1`, the values for the Ratio in assay [1] and in assay [4] were > 100000 and 160, respectively.
The IC50 is the midpoint of a concentration-inhibition curve. Low readings indicate greater potency, high ones weaker potency. In assay [5], `CCCOc1ccc(S(=O)(=O)N2CC[C@@H](N(C)C)C2)cc1-c1nc2c(c(NCc3ccc(F)cc3)nc3n[nH]cc32)c(=O)[nH]1` registered a half-inhibitory concentration (IC50) of 0.31 nM.
Regarding `CCCOc1ccc(S(=O)(=O)N2CC[C@@H](N(C)C)C2)cc1-c1nc2c(c(NCc3ccc(F)cc3)nc3nn(Cc4ccc(OC)cc4)cc32)c(=O)[nH]1`, the IC50 in assay [5] amounted to 1.7 nM.
Turning to `CCCOc1ccc(S(=O)(=O)N2CC[C@@H](N(C)C)C2)cc1-c1nc2c(c(Cl)nc3nn(Cc4ccc(OC)cc4)cc32)c(=O)[nH]1`, in assay [5], half-maximal inhibition (IC50) was put at 13 nM.
As for `CCCOc1ccc(S(=O)(=O)N2CC[C@@H](N(C)C)C2)cc1-c1nc(O)c2c(NCc3ccc(F)cc3)nc3nn(Cc4ccc(OC)cc4)cc3c2n1`, the Ratio is 2500 in assay [1], > 10000 in assay [3] and 15 in assay [4].
Regarding `CCCOc1ccc(S(=O)(=O)N2CC[C@@H](N(C)C)C2)cc1-c1nc2c(cnc3n[nH]cc32)c(=O)[nH]1`, the IC50 in assay [5] turned out to be 2.1 nM.
Take `CCCOc1ccc(S(=O)(=O)N2CC[C@@H](N(C)C)C2)cc1-c1nc(O)c2c(Cl)nc3nn(Cc4ccc(OC)cc4)cc3c2n1`: the Ratio came out at 310 in assay [1], 130 in assay [2], 1200 in assay [3] and 17 in assay [4].
In the case of `CCCOc1ccc(S(=O)(=O)N2CC[C@@H](N(C)C)C2)cc1-c1nc(O)c2c(NCc3ccc(OC)c(Cl)c3)[nH]c3nncc-3c2n1`, the Ratio in assay [3] was > 10000; in assay [4], 180.
